What was measured:
Type in all cases: protein-complex assay
[1] = target: Cyclin-dependent kinase 4/cyclin D1 (Homo sapiens, UniProt P11802); assay: Inhibition of CDK4/Cyclin D1 by FRET assay
[2] = target: CDK6/cyclin D1 (Homo sapiens, UniProt Q00534); assay: (§1) Inhibition of CDK6/Cyclin D1 by FRET assay
[3] = target: CDK6/cyclin D1 (Homo sapiens, UniProt P24385+Q00534); assay: as §1
Chain of CDK6/cyclin D1 (Homo sapiens, UniProt P24385+Q00534) (P24385 whole entry): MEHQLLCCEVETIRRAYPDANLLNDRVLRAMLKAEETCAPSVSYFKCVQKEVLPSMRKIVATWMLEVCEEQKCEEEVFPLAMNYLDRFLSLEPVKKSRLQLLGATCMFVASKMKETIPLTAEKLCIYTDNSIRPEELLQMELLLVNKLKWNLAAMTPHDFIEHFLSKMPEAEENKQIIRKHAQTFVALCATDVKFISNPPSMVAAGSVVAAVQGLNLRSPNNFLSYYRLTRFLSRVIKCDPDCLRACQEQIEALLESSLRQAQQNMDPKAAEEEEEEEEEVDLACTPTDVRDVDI
Chain of CDK6/cyclin D1 (Homo sapiens, UniProt P24385+Q00534) (Q00534 whole entry): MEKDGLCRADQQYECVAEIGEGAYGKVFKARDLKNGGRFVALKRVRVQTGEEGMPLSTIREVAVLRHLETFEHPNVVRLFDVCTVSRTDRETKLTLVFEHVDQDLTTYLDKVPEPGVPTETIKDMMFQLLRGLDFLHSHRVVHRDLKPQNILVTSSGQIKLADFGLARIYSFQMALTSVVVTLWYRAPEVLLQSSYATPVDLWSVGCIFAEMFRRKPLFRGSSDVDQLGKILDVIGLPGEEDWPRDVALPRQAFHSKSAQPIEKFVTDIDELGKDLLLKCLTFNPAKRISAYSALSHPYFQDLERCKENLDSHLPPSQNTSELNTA

Chain of Cyclin-dependent kinase 4/cyclin D1 (P11802 whole entry): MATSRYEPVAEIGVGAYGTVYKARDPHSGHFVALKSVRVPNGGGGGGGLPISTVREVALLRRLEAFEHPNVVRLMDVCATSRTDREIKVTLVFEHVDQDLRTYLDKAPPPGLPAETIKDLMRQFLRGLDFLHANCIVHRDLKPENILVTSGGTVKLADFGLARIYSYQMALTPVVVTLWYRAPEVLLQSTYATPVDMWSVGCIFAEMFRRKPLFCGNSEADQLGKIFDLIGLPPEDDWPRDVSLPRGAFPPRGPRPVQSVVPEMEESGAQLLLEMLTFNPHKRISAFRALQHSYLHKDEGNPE
Chain of Cyclin-dependent kinase 4/cyclin D1 (P24385 whole entry, further chain): as the sequence (P24385 whole entry) above
Chain of CDK6/cyclin D1 (Homo sapiens, UniProt Q00534) (P24385 whole entry): as above
Chain of CDK6/cyclin D1 (Homo sapiens, UniProt Q00534) (Q00534 whole entry): as the sequence (Q00534 whole entry) above

IC50 [1] | IC50 [2] | IC50 [3] | SMILES
162 µM | 325 µM |  | COc1cc(NCCCN(CCC(C)C)CCC(C)C)c2ncccc2c1
128 µM |  | Not Active | COc1cc(NCCN(CC(C)C)CC(C)C)c2ncc(C)cc2c1
